# Values quoted from earlier work in patent US9586989B1, “Non-toxic skin cancer therapy with copper peptides” (Skin Biology, Inc., priority 2011, dated 2017).
# Assays:
# [1] = tested on: 54 human genes overexpressed in patients with aggressive metastatic form of colon cancer; details: for concentration that produced downregulation of "metastatic" genes: Connectivity Map perturbagen search
# [2] = tested on: Ehrlich ascites cells; details: injection for 12 days; mixture of 8 micrograms ascorbic acid and 8 micrograms copper 2+ complex
Compound,"concentration that produced downregulation of ""metastatic"" genes [1]","share of genes in which RNA production was suppressed ([1]; of 54 human genes overexpressed in aggressive metastatic colon cancer, GHK without copper 2+)",share of mice that lived for a long time and resisted re-establishment of tumor cells [2],share of mice with prolonged life span [2]
O=C1C=C2C=C[C@@H]3C[C@@]2(O1)[C@H]1CCCCN31 [securinine],18 µM,,,
Gly-L-His-L-Lys [GHK],1 µM,70%,,
copper 2+ complexed to Glycyl-Glycyl-L-Histidine,,,40%,60%
